Assay results as given in patent EP3283473B1, “GHRELIN O-ACYL TRANSFERASE INHIBITORS” (Eli Lilly and Company, priority 2015, dated 2016).

Target: T1, human GOAT (Homo sapiens, UniProt Q96T53)
T1 construct: His; made in house; host or cells: Sf9 insect cells (baculovirus, pAN51 vector); microsomal membrane preparation
T1 sequence (Q96T53 1-435): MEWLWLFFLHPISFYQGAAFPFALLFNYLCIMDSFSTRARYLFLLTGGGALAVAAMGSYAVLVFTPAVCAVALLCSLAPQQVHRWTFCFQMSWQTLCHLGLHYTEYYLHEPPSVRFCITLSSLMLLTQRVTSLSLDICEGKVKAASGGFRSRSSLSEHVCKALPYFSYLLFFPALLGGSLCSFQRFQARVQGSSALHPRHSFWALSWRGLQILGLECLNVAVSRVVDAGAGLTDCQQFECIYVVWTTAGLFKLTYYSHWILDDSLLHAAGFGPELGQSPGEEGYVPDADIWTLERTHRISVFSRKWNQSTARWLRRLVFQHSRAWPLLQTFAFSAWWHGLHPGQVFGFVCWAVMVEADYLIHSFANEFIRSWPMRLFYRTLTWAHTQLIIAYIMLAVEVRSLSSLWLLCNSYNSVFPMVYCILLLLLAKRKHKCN
Test: In vitro cell free human GOAT enzymatic assay
Assay type: biochemical
Conditions: GOAT-His/sf9 membrane preparation
Procedure: Human GOAT gene (Accession number: NM_001100916) is subcloned to pAN51 baculoviral expression vector. Baculovirus stock is prepared following the Bac-to-Bac Protocol provided by the vendor, Invitrogen, California, USA. Five mililiters of human GOAT baculoviral stock are added to 500 mL Sf9 cells in HyQ SFX-Insect™ media (HyClone catalog number SH30278.02) at the density of 1 × 10^6 cells per milliliter in a 2 L Erlenmeyer flask. The flask with human GOAT gene infected Sf9 cells is put on a plate shaker at 120 rpm at 28 °C for 48 hours. After 48 hours incubation, cells are centrifuged at 1,000xg for 10 min at 4 °C. The cell pellets are collected and stored at -80 °C in a freezer until ready for further processing.
One gram cell pellets are suspended in 9 mL chilled homogenization buffer (50 mM Tris-HCl, 250 mM sucrose, adjusted to pH 7.5 and sterile filtered through 0.2 µm Millipore filter). The cell suspension is transferred to a Dounce glass homogenizer. Cell pellets are homogenized with 40 strokes on ice. The homogenate is centrifuged at 3,000 rpm in a Beckman swing bucket rotor at 4 °C for 10 min to remove unbroken cells. The supernatant is collected and centrifuged at 40,000 xg for 1 hour at 4 °C. The resulting membrane pellet is suspended in the homogenization buffer using a Dounce glass homogenizer and stored at -20 °C in the freezer for the assay. For long term storage of the human GOAT enzyme membrane preparation, the suspended membrane is stored in a -80 °C freezer.
Prepare test compounds in DMSO to make up a 0.2 mM stock solution. Serially dilute the stock solution in DMSO to obtain a ten-point dilution curve with final compound concentrations ranging from 10 µM to 0.5 nM in a 96-well round-bottom plate. Prepare enzyme and substrate solutions in assay buffer (0.02% TWEEN™-20 in 50 mM Tris, pH 7.5/250 mM sucrose/1 mg/mL BSA/10 mM EDTA). Add diluted compound (1 µL) to each well of row A to N of a corresponding low protein binding 384 well plate. Add human GOAT substrate mix (10 µL), consisting of human desacyl-ghrelin-biotin (CPC Scientific Inc., 6.0 µM final), octanoyl-coenzyme A (CoA) (Sigma, 60 µM final) and an AG specific antibody (WO 2006/091381)(1.0 µg/mL final), to the compounds. Add GOAT-His/sf9 enzyme preparation, that has been prepared in assay buffer (9 µL), to each well of the plate containing substrate and test compounds resulting in a final concentration of 0.01 µg/mL to initiate the reaction. Incubate the mixture for 1 hour at RT on a gently rotating oscillator. Add 4M guanidine hydrochloride (20 µL) to all wells, mix, and incubate for 3 hours to stop the reaction.
Prepare ELISA plates (STREPTAVIDIN SPECTRAPLATE™ 384, Perkin Elmer) by blocking with 2% Heat-Inactivated FBS in PBS (40 µL) (Invitrogen) blocking buffer for 3 hours. Aspirate the blocking buffer from ELISA plate and add blocking buffer (23 µL) to columns 1-24, rows A-N. Reserve rows O and P for the acylghrelin standard curve. Add the reaction mix (2 µL) to the ELISA plates. Prepare a 10 point standard curve (biotin-labeled octanoyl-ghrelin) by serial 2X dilution in blocking buffer containing 0.2M Guanidine hydrochloride starting at 2.5 pM. Incubate the reaction mixture or biotin-labeled AG standard in the ELISA plate overnight at 4 °C. The following day, wash the plate 3× with wash buffer (0.1% TWEEN™-20/PBS, 100 µL per well in each wash cycle). […] Read plates at 450 nm using an ENVISION® Multilabel plate reader. […]

First: Cc1nc(C(F)(F)F)nc(N)c1CCC1CCN(C(=O)[C@H](C)NC(=O)c2nccnc2Cl)CC1 [Example 15, N-[(1S)-2-[4-[2-[4-Amino-6-methyl-2-(trifluoromethyl)pyrimidin-5-yl]ethyl]-1-piperidyl]-1-methyl-2-oxo-ethyl]-3-chloro-pyrazine-2-carboxamide]
Second: Cc1nc(C(F)(F)F)nc(N)c1CCC1CCN(C(=O)[C@H](C)NC(=O)CO)CC1 [Example 18, N-[(1S)-2-[4-[2-[4-Amino-6-methyl-2-(trifluoromethyl)pyrimidin-5-yl]ethyl]-1-piperidyl]-1-methyl-2-oxo-ethyl]-2-hydroxy-acetamide]
The IC20 of the first is 5-fold lower: 55.7 nM for the first, 276 nM for the second.

`COc1ccccc1C(=O)N[C@@H](C)C(=O)N1CCC(CCc2c(C)nc(C(F)(F)F)nc2N)CC1` [Example 17, N-[(1S)-2-[4-[2-[4-Amino-6-methyl-2-(trifluoromethyl)pyrimidin-5-yl]ethyl]-1-piperidyl]-1-methyl-2-oxo-ethyl]-2-methoxy-benzamide] and `COC(=O)N[C@@H](C)C(=O)N1CCC(CCc2c(C)nc(C(F)(F)F)nc2N)CC1` [Example 20, Methyl N-[(1S)-2-[4-[2-[4-amino-6-methyl-2-(trifluoromethyl)pyrimidin-5-yl]ethyl]-1-pipaidyl]-1-methyl-2-oxo-ethyl]carbamate] are within 1.5-fold of each other in IC20: 420 nM for the first, 615 nM for the second.
